O=C1N(c2cc(Cl)cc(Cl)c2)C(=O)[C@@]2(Cc3ccc(Br)cc3)C[C@H](O)CN12 [Example 61, (5R,7S)-5-(4-Bromobenzyl)-3-(3,5-dichlorophenyl)-7-hydroxy-1,3-diazabicyclo[3.3.0]octane-2,4-dione]
melting point: 60.4 °C

O=C1N(c2cc(Cl)nc(Cl)c2)C(=O)C2(Cc3ccc(O)cc3)CCCN12 (stereo not shown) [Example 196, 5-(4-Hydroxybenzyl)-3-(2,6-dichloro-4-pyridyl)-1,3-diazabicyclo[3.3.0]octane-2,4-dione]
melting point: 164.9 °C

NC(=O)C(N)CC(=O)N[C@@H]1CN2C(=O)N(c3cc(Cl)nc(Cl)c3)C(=O)[C@@]2(Cc2ccc(OC(F)(F)F)cc2)C1 (stereo partly drawn) [Example 255, (5R, 7S)-5-[4-(Trifluoromethoxy)benzyl]-3-(2,6-dichloro-4-pyridyl)-7-[(3-carbamoyl-3-aminopropanoyl)amino]-1,3-diazabicyclo[3.3.0]octane-2,4-dione]
melting point: 107.8 °C

O=C1N(c2cc(Cl)nc(Cl)c2)C(=O)C2(Cc3ccc(Br)cc3)CCCNN12 (stereo not shown) [Example 100, 6-(4-Bromobenzyl)-8-(2,6-dichloro-4-pyridyl)-1,2,8-triazabicyclo[4.3.0] nonan-7,9-dione]
melting point: 190 °C (dec.)

O=C1N(c2cc(Cl)cc(Cl)c2)C(=O)C2(Cc3ccc(-c4cccc(CO)c4)cc3)CCCN12 (stereo not shown) [Example 222, 5-[4-(3-Hydroxymethylphenyl)benzyl]-3-(3,5-dichlorophenyl)-1,3-diazabicyclo[3.3.0]octane-l2,4-dione]
melting point: 77.1 °C

CC(C)(C)OC(=O)c1ccc(C(=O)N[C@H]2CN3C(=O)N(c4cc(Cl)cc(Cl)c4)C(=O)[C@@]3(Cc3ccc(Br)cc3)C2)cc1 [Example 80, (5R, 7R)-5-(4-Bromobenzyl)-3-(3,5-dichlorophenyl)-7-(4-t-butoxycarbonylbenzoylamino)-1,3-diazabicyclo[3.3.0]octane-2,4-dione]
melting point: 112 °C

CN1CCN(C(=O)CCC(=O)N[C@@H]2CN3C(=O)N(c4cc(Cl)nc(Cl)c4)C(=O)[C@@]3(Cc3ccc(OC(F)(F)F)cc3)C2)CC1 [Example 69, (5R,7S)-5-[4-(Trifluoromethoxy)benzyl]-3-(2,6-dichloro-4-pyridyl)-7-[3-(4-methyl-1-piperazinylcarbonyl)propanoylamino]-1,3-diazabicyclo[3.3.0]octane-2,4-dione]
melting point: 70 °C

O=C1N(c2cc(Cl)cc(Cl)c2)C(=O)C2(Cc3ccc([S+]([O-])C(F)(F)F)cc3)CCCN12 (stereo not shown) [Example 310]
melting point: 63.5 °C

CC(=O)N[C@@H]1CN2C(=O)N(c3cc(Cl)cc(Cl)c3)C(=O)[C@]2(Cc2ccc(OC(F)(F)F)cc2)C1 [Example 291]
melting point: 61.2 °C

COc1cc(OC)cc(N2C(=O)N3CCCC3(Cc3ccc(Br)cc3)C2=O)c1 (stereo not shown) [Example 235]
melting point: 154.8 °C

Nc1ccc(-c2ccc(CC34CCCN3C(=O)N(c3cc(Cl)cc(Cl)c3)C4=O)cc2)cc1 (stereo not shown) [Example 115, 5-[4-(4-Aminophenyl)benzyl]-3-(3,5-dichlorophenyl)-1,3-diazabicyclo[3.3.0]octane-2,4-dione]
melting point: 278 °C (dec.)

O=C1N(c2cc(Cl)cc(Cl)c2)C(=O)[C@]2(Cc3ccc(Br)cc3)C[C@@H](O)CN12 [Example 2, (5S, 7R)-5-(4-Bromobenzyl)-3-(3,5-dichlorophenyl)-7-hydroxy-1,3-diazabicyclo[3.3.0]octane-2,4-dione]
melting point: 136.1 °C

CC1(C)COC(c2ccc(CC34CCCCN3C(=O)N(c3cc(Cl)cc(Cl)c3)C4=O)cc2)=N1 (stereo not shown) [Example 159, 6-[4-(4,4-Dimethyl-4,5-dihydro-2-oxazolyl)benzyl]-8-(3,5-dichlorophenyl)-1,8-diazabicyclo[4.3.0]nonane-7,9-dione]
melting point: 87.2 °C

N#Cc1ccc(C(F)(F)C23CCCN2C(=O)N(c2cc(Cl)cc(Cl)c2)C3=O)cc1 (stereo not drawn) [Example 113, 5-(4-Cyano-α,α-difluorobenzyl)-3-(3,5-dichlorophenyl)-1,3-diazabicyclo[3.3.0]octane-2,4-dione]
melting point: 66 °C

CC(=O)Nc1cccc(-c2ccc(CC34CCCN3C(=O)N(c3cc(Cl)cc(Cl)c3)C4=O)cc2)c1 (stereo not shown) [Example 119]
melting point: 98 °C

N[C@@H]1CN2C(=O)N(c3cc(Cl)nc(Cl)c3)C(=O)[C@@]2(Cc2ccc(OC(F)(F)F)cc2)C1 [Example 63, (5R,7S)-5-[4-(Trifluoromethoxy)benzyl]-3-(2,6-dichloro-4-pyridyl)-7-amino-1,3-diazabicyclo[3.3.0]octane-2,4-dione]
melting point: 150.6 °C

CC(C)(C)OC(=O)CN1CCN2C(=O)N(c3cc(Cl)cc(Cl)c3)C(=O)C2(Cc2ccc(Br)cc2)C1 (stereo not shown) [Example 30, 4-(tert-Butoxycarbonylmethyl)-6-(4-bromobenzyl)-8-(3,5-dichlorophenyl)-1,4,8-triazabicyclo[4.3.0]nonane-7,9-dione]
melting point: 74.7 °C

NC(=O)[C@H]1CN2C(=O)N(c3cc(Cl)cc(Cl)c3)C(=O)[C@]2(Cc2ccc(OC(F)(F)F)cc2)C1 [Example 312, (5R, 7R)-5-[4-(Trifluoromethoxy)benzyl]-3-(3,5-dichlorophenyl)-7-carbamoyl-1,3-diazabicyclo[3.3.0]octane-2,4-dione]
melting point: 122.7 °C

CNC(=O)c1ccc(CC23CCCCN2C(=O)N(c2cc(Cl)cc(Cl)c2)C3=O)cc1 (stereo not shown) [Example 157]
melting point: 78.7 °C (dec.)

CC(=O)NC1CN2C(=O)N(c3cc(Cl)nc(Cl)c3)C(=O)C2(Cc2ccc(OC(F)(F)F)cc2)C1 (stereo not shown) [Example 283]
melting point: 122.7 °C

O=C1N(c2cc(Cl)cc(Cl)c2)C(=O)C2(Cc3ccc(-c4ccc([N+](=O)[O-])cc4)cc3)CCCN12 (stereo not shown) [Example 114, 5-[4-(4-Nitrophenyl)benzyl]-3-(3,5-dichlorophenyl)-1,3-diazabicyclo[3.3.0]octane-2,4-dione]
melting point: 72 to 73 °C

CN(C)[C@@H]1CN2C(=O)N(c3cc(Cl)cc(Cl)c3)C(=O)[C@@]2(Cc2ccc(Br)cc2)C1 [Example 50, (5R,7S)-5-(4-Bromobenzyl)-3-(3,5-dichlorophenyl)-7-dimethylamino-1,3-diazabicyclo[3.3.0]octane-2,4-dione]
melting point: 54 °C

N#Cc1ccc(CC23CCCN2C(=O)N(c2cc(Cl)c(N)c(Cl)c2)C3=O)cc1 (stereo not shown) [Example 132, 5-(4-Cyanobenzyl)-3-(3,5-dichloro-4-aminophenyl)-1,3-diazabicyclo[3.3.0]octane-2,4-dione]
melting point: 103 °C

O=C1N(c2cc(Cl)cc(Cl)c2)C(=O)C2(Cc3ccc(Br)cc3)CNCCN12 (stereo not shown) [Example 27, 6-(4-Bromobenzyl)-8-(3,5-dichlorophenyl)-1,4,8-triazabicyclo[4.3.0]nonane-7,9-dione]
melting point: 92.5 °C

NC(=O)N[C@@H]1CN2C(=O)N(c3cc(Cl)nc(Cl)c3)C(=O)[C@@]2(Cc2ccc(OC(F)(F)F)cc2)C1 [Example 287, (5R, 7S)-5-[4-(Trifluoromethoxy)benzyl]-3-(2,6-dichloro-4-pyridyl)-7-ureido-1,3-diazabicyclo[3.3.0]octane-2,4-dione]
melting point: 141.7 °C

O=C1CN2C(=O)N(c3cc(Cl)nc(Cl)c3)C(=O)[C@@]2(Cc2ccc(OC(F)(F)F)cc2)C1 [Example 70, (5R)-5-[4-(Trifluoromethoxy)benzyl]-3-(2,6-dichloro-4-pyridyl)-7-oxo-1,3-diazabicyclo[3.3.0]octane-2,4-dione]
melting point: 166 °C

CC(O)c1cccc(-c2ccc(CC34CCCN3C(=O)N(c3cc(Cl)cc(Cl)c3)C4=O)cc2)c1 (stereo not shown) [Example 223, 5-[4-[3-(!-Hydroxy)ethylphenyl]benzyl]-3-(3,5-dichlorophenyl)-1,3-diazabicyclo[3.3.0]octane-2,4-dione]
melting point: 66.5 °C

N#Cc1ccc(CC23CCCN2C(=O)N(c2cc(Cl)cc(-n4cccc4)c2)C3=O)cc1 (stereo not shown) [Example 51, 5-(4-Cyanobenzyl)-3-[3-chloro-5-(1-pyrrolyl)-phenyl]-1,3-diazabicyclo[3.3.0]octane-2,4-dione]
melting point: 266.5 °C

CC(=O)NC(CC(=O)N[C@@H]1CN2C(=O)N(c3cc(Cl)nc(Cl)c3)C(=O)[C@@]2(Cc2ccc(OC(F)(F)F)cc2)C1)C(N)=O (stereo partly drawn) [Example 256, (5R, 7S)-5-[4-(Trifluoromethoxy)benzyl]-3-(2,6-dichloro-4-pyridyl)-7-[(3-carbamoyl-3-acetylaminopropanoyl)amino]-1,3-diazabicyclo[3.3.0]octane-2,4-dione]
melting point: 152.8 °C

CC(=O)N[C@@H]1CN2C(=O)N(c3cc(Cl)cc(Cl)c3)C(=O)[C@@]2(Cc2ccc(Br)cc2)C1 [Example 48, (5R,7S)-5-(4-Bromobenzyl)-3-(3,5-dichlorophenyl)-7-acetamido-1,3-diazabicyclo[3.3.0]octane-2,4-dione]
melting point: 140.7 °C

O=C1N(c2cc(C(F)(F)F)cc(C(F)(F)F)c2)C(=O)C2(Cc3ccc(Br)cc3)CCCN12 (stereo not shown)
melting point: 138 °C

CN1CCN2C(=O)N(c3cc(Cl)cc(Cl)c3)C(=O)C2(Cc2ccc(Br)cc2)C1 (stereo not shown) [Example 29, 4-Methyl-6-(4-bromobenzyl)-8-(3,5-dichloro-phenyl)-1,4,8-triazabicyclo[4.3.0]nonane-7,9-dione]
melting point: 221 °C

O=C1N(c2cc(Cl)c(OCc3ccccc3)c(Cl)c2)C(=O)C2(Cc3ccc(Br)cc3)CCCN12 (stereo not shown) [Example 138, 5-(4-Bromobenzyl)-3-[3,5-dichloro-4-(benzyloxy)phenyl]-1,3-diazabicyclo[3.3.0]octane-2,4-dione]
melting point: 62 °C

N#Cc1ccc(CC23CCCN2C(=O)N(c2cc(Cl)cc(-n4cccc4C=O)c2)C3=O)cc1 (stereo not shown) [Example 52, 5-(4-Cyanobenzyl)-3-[3-chloro-5-(2-formyl-1-pyrrolyl)-phenyl]-1,3-diazabicyclo[3.3.0]octane-2,4-dione]
melting point: 109.7 °C

C[S+]([O-])c1ccc(CC23CCCN2C(=O)N(c2cc(Cl)cc(Cl)c2)C3=O)cc1 (stereo not shown) [Example 189, 5-(4-Methylsulfinylbenzyl)-3-(3,5-dichlorophenyl)-1,3-diazabicyclo[3.3.0]octane-2,4-dione]
melting point: 71.2 °C

CC(=O)c1cccc(N2C(=O)N3CCCC3(Cc3ccc(Br)cc3)C2=O)c1 (stereo not shown) [Example 237]
melting point: 120.4 °C

CC(=O)O[C@@H]1CN2C(=O)N(c3cc(Cl)cc(Cl)c3)C(=O)[C@]2(Cc2ccc(Br)cc2)C1 [Example 4, (5S,7S)-5-(4-Bromobenzyl)-3-(3,5-dichlorophenyl)-7-acetoxy-1,3-diazabicyclo[3.3.0]octane-2,4-dione]
melting point: 149.8 °C

— patent publication US7342012B2, “Inhibitors of αLβ2 mediated cell adhesion” (Mitsubishi Tanabe Pharma Corporation, priority 1999, dated 2008)
